From patent US10617690B2 (priority 2015, dated 2020) come the findings set out here.

Structures can show the parent of a compound that is named as a salt.

For one experiment, the target named is JAK2 protein kinase (Homo sapiens, UniProt O60674). The experiment can be described thus: biochemical. The settings on record: 12 uM ATP, 60 min.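 Also: recombinant human JAK2 with ULight-labelled JAK-1(Tyr1023) peptide substrate, phosphorylation detected by TR-FRET using Eu-labelled anti-phosphotyrosine antibody, 1% DMSO.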
Chain of JAK2 protein kinase (O60674 whole entry): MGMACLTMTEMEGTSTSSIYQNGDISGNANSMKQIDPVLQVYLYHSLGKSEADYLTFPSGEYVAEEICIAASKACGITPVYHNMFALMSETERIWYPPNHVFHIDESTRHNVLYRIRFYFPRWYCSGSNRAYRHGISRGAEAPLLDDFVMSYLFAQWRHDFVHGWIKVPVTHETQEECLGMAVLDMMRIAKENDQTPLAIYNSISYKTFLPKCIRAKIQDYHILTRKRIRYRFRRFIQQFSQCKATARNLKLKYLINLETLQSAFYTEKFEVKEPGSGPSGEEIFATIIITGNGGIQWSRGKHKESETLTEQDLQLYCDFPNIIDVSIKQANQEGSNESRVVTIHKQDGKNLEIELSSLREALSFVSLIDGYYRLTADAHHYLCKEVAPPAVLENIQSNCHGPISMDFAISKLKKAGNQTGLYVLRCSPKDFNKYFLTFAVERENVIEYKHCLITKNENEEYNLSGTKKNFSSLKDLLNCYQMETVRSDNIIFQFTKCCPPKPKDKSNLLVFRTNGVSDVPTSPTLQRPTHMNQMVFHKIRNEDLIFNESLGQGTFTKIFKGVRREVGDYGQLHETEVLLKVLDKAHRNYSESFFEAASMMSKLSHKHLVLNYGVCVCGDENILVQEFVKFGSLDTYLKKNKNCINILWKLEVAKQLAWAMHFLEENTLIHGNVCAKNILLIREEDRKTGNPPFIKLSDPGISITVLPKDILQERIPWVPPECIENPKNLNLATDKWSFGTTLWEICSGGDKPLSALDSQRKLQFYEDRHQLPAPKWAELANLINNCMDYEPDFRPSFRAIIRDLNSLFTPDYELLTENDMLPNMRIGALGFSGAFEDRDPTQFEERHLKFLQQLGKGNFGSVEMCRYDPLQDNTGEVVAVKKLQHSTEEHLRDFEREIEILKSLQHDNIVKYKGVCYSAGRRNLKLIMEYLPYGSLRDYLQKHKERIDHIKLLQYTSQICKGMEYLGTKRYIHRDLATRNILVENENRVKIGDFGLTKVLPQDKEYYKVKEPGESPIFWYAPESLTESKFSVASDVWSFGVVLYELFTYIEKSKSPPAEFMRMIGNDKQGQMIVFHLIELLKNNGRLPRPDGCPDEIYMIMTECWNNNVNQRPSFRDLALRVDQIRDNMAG
The next experiment addresses JAK1 protein kinase (Homo sapiens, UniProt P23458). The experiment can be described thus: biochemical. The conditions noted are these: 38 uM ATP, 90 min. The protocol:
In Vitro Activity Test of Jak1, Jak 2 and Jak 3 Kinase
Recombinant humanized JAK1, JAK2 and JAK3 […] were all purchased from Life technology. LANCE Ultra ULight™-JAK-1(Tyr1023) peptide and LANCE Eu-W1024 Anti-phosphotyrosine (PT66) were both purchased from PerkinElmer. Envision (PerkinElmer) was used to read a plate.
Three dilution of a test compound was prepared, and 11 final concentrations were obtained: 10 uM to 0.17 nM. Each concentration had two repeat wells. The content of DMSO in a detection reaction was 1%.
2 nM JAK1 protein kinase, 50 nM LANCE Ultra ULight™-JAK-1(Tyr1023) peptide, 38 uM ATP, 50 mM HEPES (pH7.5), 10 mM MgCl2, 1 mM EGTA, 2 mM DTT, and 0.01% BRIJ-35. Detection plate was White Proxiplate 384-Plus plate (PerkinElmer), the reaction was conducted for 90 min at room temperature, and reaction system was 10 ul.
10 ul detection reagent was added into the reaction plate, wherein the final concentration of LANCE Eu-W1024 Anti-phosphotyrosine (PT66) was 2 nM, the final concentration of EDTA was 10 mM, incubation was conducted for 60 min at room temperature, and the plate was read by the Envision.
The reading was converted into a suppression ratio as follow equation: (%)=([…])/(Max−Min)*100%. IC50 data was detected by 4 parametric curve fitting (Model 205 in XLFIT5, iDBS), see Table 1.

The target of another experiment is T1, JAK3 (Homo sapiens, UniProt P52333).
T1 construct: purchased Life technology
T1 sequence (P52333 1-1124): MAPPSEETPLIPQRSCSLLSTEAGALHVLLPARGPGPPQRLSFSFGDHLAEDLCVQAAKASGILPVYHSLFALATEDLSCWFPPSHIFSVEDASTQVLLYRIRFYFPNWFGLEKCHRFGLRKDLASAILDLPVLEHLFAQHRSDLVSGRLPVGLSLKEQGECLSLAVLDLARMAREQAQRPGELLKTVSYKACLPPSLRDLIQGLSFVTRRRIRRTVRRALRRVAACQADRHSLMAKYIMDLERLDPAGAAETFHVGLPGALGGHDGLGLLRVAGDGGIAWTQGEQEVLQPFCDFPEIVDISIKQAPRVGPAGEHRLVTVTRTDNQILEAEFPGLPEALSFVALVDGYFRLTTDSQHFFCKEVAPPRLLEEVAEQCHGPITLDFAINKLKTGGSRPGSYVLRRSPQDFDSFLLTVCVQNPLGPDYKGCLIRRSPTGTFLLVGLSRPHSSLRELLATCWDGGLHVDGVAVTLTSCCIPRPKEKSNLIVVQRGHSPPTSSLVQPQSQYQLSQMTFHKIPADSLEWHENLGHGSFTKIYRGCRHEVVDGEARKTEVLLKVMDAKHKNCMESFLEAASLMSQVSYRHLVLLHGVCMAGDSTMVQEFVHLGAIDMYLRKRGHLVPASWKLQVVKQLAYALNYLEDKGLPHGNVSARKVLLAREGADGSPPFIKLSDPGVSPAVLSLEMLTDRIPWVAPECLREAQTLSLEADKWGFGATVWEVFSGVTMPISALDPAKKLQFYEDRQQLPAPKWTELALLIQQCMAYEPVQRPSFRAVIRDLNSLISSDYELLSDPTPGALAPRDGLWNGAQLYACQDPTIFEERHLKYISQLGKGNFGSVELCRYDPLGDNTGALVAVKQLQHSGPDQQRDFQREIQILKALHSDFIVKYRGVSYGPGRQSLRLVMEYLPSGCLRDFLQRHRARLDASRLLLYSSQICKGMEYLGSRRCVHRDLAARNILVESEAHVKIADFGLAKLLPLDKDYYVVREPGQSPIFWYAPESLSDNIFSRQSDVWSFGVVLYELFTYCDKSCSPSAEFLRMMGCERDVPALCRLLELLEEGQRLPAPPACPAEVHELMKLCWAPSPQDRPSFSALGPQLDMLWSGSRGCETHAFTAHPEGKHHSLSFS
The experiment can be described thus: In vitro activity test of JAK3 kinase (LANCE Ultra TR-FRET).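 Also: recombinant human JAK3 phosphorylating ULight-JAK-1(Tyr1023) peptide at 4 µM ATP, with 1% DMSO, detected by Eu-anti-phosphotyrosine TR-FRET on Envision and converted to percent inhibition.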 The class given is biochemical.

Chain of JAK1 protein kinase (P23458 whole entry): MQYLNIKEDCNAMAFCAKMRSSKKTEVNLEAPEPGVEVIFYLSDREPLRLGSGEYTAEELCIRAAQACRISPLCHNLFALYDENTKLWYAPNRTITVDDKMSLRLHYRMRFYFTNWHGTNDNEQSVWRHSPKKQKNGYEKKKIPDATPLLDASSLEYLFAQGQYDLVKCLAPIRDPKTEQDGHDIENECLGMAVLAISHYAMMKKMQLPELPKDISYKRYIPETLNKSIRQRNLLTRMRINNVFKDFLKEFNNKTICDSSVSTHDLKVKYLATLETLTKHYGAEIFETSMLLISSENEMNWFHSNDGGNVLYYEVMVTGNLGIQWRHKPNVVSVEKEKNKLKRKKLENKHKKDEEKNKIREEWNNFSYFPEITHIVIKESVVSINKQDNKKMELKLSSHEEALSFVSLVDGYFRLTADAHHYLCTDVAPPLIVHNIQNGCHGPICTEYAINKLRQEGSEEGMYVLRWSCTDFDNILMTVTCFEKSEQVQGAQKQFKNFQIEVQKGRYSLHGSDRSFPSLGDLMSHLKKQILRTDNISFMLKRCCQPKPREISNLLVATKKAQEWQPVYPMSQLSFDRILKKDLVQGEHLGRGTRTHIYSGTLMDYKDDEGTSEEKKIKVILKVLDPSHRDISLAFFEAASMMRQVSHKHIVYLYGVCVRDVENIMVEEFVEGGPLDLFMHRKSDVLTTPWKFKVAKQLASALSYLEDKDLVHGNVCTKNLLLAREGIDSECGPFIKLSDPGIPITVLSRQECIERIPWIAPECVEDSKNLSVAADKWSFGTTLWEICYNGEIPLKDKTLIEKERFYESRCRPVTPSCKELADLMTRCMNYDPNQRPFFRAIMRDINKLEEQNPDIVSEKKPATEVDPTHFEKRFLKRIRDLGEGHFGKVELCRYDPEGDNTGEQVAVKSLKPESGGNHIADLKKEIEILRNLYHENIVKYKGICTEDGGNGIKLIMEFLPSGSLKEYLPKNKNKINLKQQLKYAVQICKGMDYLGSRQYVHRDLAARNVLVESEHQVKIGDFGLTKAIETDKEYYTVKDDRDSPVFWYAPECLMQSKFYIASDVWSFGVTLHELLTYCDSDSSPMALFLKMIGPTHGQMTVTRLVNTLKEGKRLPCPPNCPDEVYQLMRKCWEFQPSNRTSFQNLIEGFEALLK
Description for JAK2 protein kinase: (§1) Recombinant humanized JAK1, JAK2 and JAK3 protease were all purchased from Life technology. LANCE Ultra ULight™-JAK-1(Tyr1023) peptide and LANCE Eu-W1024 Anti-phosphotyrosine (PT66) were both purchased from PerkinElmer. Envision (PerkinElmer) was used to read a plate.
(§2) The reading was converted into a suppression ratio as follow equation: (%)=(Min−Ratio)/(Max−Min)*100%.
Protocol for JAK3: as §1
0.05 nM protein kinase, 50 nM LANCE Ultra ULight™-JAK-1(Tyr1023) peptide, 4 uM ATP, 50 mM HEPES (pH7.5), 10 mM MgCl2, 1 mM EGTA, 2 mM DTT, and 0.01% BRIJ-35.
as §2

Regarding `CN(c1ncnc2[nH]ccc12)N1CCC(NC(=O)CC#N)CC1` [WX25, 2-cyano-N-(1-(methyl(7H-pyrrolo[2,3-d]pyrimidin-4-yl)amino)piperidin-4-yl)acetamide], the results for the IC50 on JAK2 protein kinase, on JAK1 protein kinase and at JAK3 were 100 to 1000 nM, 10 to 100 nM and 100 to 1000 nM, respectively.
As for `CC1CCC(C(=O)NCC#N)CN1N(C)c1ncnc2[nH]ccc12` (stereo not drawn) [WX26, N-(cyanomethyl)-6-methyl-1-[methyl(7H-pyrrolo[2,3-d]pyrimidin-4-yl)amino]piperidyl-3-formamide], the IC50 was greater than 1000 nM against JAK2 protein kinase, 100 to 1000 nM at JAK1 protein kinase and 100 to 1000 nM against JAK3.
As to `CC1CCC(C(=O)NCC(F)(F)F)CN1N(C)c1ncnc2[nH]ccc12` (stereo not drawn) [WX27, 6-methyl-1-(methyl(7H-pyrrole[2,3-d]pyrimidin-4-yl)amino)-N-(2,2,2-trifluoroethyl)piperidyl-3-formamide], the results for the IC50 on JAK2 protein kinase, against JAK1 protein kinase and against JAK3 were greater than 1000 nM, 100 to 1000 nM and 100 to 1000 nM, respectively.
Regarding `CC1CCC2CN1N(c1ncnc3[nH]ccc13)C2=O` (stereo not drawn) [WX28, 2-methyl-7-(7H-pyrrolo[2,3-d]pyrimidin-4-yl)-1,7-diazabicyclo[3.2.1]octan-6-one], the half-inhibitory concentration (IC50) against JAK2 protein kinase, on JAK1 protein kinase and on JAK3 was greater than 1000 nM each time.
With `CN(c1ncnc2[nH]ccc12)N1CCCC(N2CCCC2=O)C1` (stereo not drawn) [WX29, 1-[1-[methyl(7H-pyrrolo[2,3-d]pyrimidin-4-yl)amino]-3-piperidinyl]pyrrolid-2-one], the IC50 against JAK2 protein kinase is greater than 1000 nM; against JAK1 protein kinase it was greater than 1000 nM; against JAK3, 100 to 1000 nM.
As to `CN(c1ncnc2[nH]ccc12)N1CCC(C(=O)NCC#N)C1` (stereo not drawn) [WX30, N-(cyanomethyl)-1-[methyl(7H-pyrrolo[2,3-d]pyrimidin-4-yl)amino]pyrrolidyl-3-formamide], the results for the IC50 against JAK2 protein kinase, on JAK1 protein kinase and against JAK3 were 10 to 100 nM, less than 10 nM and 10 to 100 nM, respectively.
Turning to `CN(c1ncnc2[nH]ccc12)N1CCC(C(=O)NCC(F)(F)F)C1` (stereo not drawn) [WX31, 1-[methyl(7H-pyrrolo[2,3-d]pyrimidin-4-yl)amino]-N-(2,2,2-trifluoroethyl)pyrrolidyl-3-formamide], the IC50 is 10 to 100 nM at JAK2 protein kinase, less than 10 nM on JAK1 protein kinase and 10 to 100 nM on JAK3.
For the compound `CN(c1ncnc2[nH]ccc12)N1CCCN(C(=O)CC#N)CC1` [WX34, 3-(4-(methyl(7H-pyrrolo[2,3-d]pyrimidin-4-yl)amino)-1,4-diazepan-1-yl)-3-carbonyl-propionitrile], the IC50 against JAK2 protein kinase, on JAK1 protein kinase and against JAK3 was 100 to 1000 nM in each case.
Regarding `O=C(CC(F)(F)F)N1CCCN(Nc2ncnc3[nH]ccc23)CC1` [WX35, L-(4-((7H-pyrrolo[2,3-d]pyrimidin-4-yl)amino)-diazepan-1-yl)-3,3,3-trifluorotrifluoropropan-1-one], the IC50 against JAK2 protein kinase, on JAK1 protein kinase and at JAK3 was greater than 1000 nM in each case.
For the compound `CN(c1ncnc2[nH]ccc12)N1CCCN(C(=O)CC(F)(F)F)CC1` [WX36], the results for the IC50 against JAK2 protein kinase, against JAK1 protein kinase and against JAK3 were greater than 1000 nM, 100 to 1000 nM and greater than 1000 nM, respectively.
On to `CN(c1ncnc2[nH]ccc12)N1CCCC(C)(C(=O)NCC#N)C1` (stereo not drawn) [WX37, N-(cyanomethyl)-3-methyl-1-[methyl(7H-pyrrolo[2,3-d]pyrimidie-yl)amino]piperidyl-3-formamide], for which the IC50 against JAK2 protein kinase, on JAK1 protein kinase and against JAK3 was greater than 1000 nM in each case.
For the compound `CN(c1ncnc2[nH]ccc12)N1CCCC(C)(C(=O)NCC(F)(F)F)C1` (stereo not drawn) [WX38, 3-methyl-11-(methyl(7H-pyrrolo[2,3-d]pyrimidine-4-yl)amino)-N-(2,2,2-trifluoroethyl)piperidyl-3-formamide], the IC50 against JAK2 protein kinase, against JAK1 protein kinase and against JAK3 was greater than 1000 nM throughout.
`O=C(NCC(F)(F)F)C1CN(Nc2ncnc3[nH]ccc23)CCO1` (stereo not drawn) [WX40, 4-((7H-pyrrolo[2,3-d]pyrimidin-4-yl)amino)-N-(2,2,2-trifluoroethyl)morpholine-2-form amide]: the values for the IC50 against JAK2 protein kinase, against JAK1 protein kinase and on JAK3 were greater than 1000 nM, 10 to 100 nM and greater than 1000 nM, respectively.
In the case of `CN(c1ncnc2[nH]ccc12)N1CCOC(C(=O)NCC(F)(F)F)C1` (stereo not drawn) [WX41, 4-(methyl(7H-pyrrolo[2,3-d]pyrimidin-4-yl)amino)-N-(2,2,2-trifluoroethyl)morpholine-2-formamide], the IC50 against JAK2 protein kinase was in the range of 100 to 1000 nM; against JAK1 protein kinase, 10 to 100 nM; against JAK3 it was 100 to 1000 nM.
For the compound `COCNC(=O)C1CCCN(N(C)c2ncnc3[nH]ccc23)C1` (stereo not drawn) [WX42], the results for the IC50 against JAK2 protein kinase, at JAK1 protein kinase and against JAK3 were 100 to 1000 nM, 10 to 100 nM and 10 to 100 nM, respectively.
On to `CSCNC(=O)C1CCCN(N(C)c2ncnc3[nH]ccc23)C1` (stereo not drawn) [WX43], for which the IC50 is 10 to 100 nM on JAK2 protein kinase, less than 10 nM against JAK1 protein kinase and 10 to 100 nM on JAK3.
Turning to `CN(c1ncnc2[nH]ccc12)N1CCCC(CC#N)C1` (stereo not drawn) [WX44, 2-[1-[methyl[7H-pyrrole[2,3-d]pyrimidine-4-]amino]-3-piperidyl]acetonitrile], the IC50 is 100 to 1000 nM against JAK2 protein kinase, 10 to 100 nM against JAK1 protein kinase and 100 to 1000 nM against JAK3.
For the compound `CN(c1ncnc2[nH]ccc12)N1CCCC(CNC(=O)CC#N)C1` (stereo not drawn) [WX45], the IC50 on JAK2 protein kinase is 100 to 1000 nM; against JAK1 protein kinase, 10 to 100 nM; at JAK3 it was 100 to 1000 nM.
As to `CN(c1ncnc2[nH]ccc12)N1CCCC(C(=O)NCC(F)(F)C(F)(F)F)C1` (stereo not drawn) [WX46, 1-[methyl(7H-pyrrole[2,3-d]pyrimidine-4-)amino]-N-(2,2,3,3,3-pentafluoropropyl)piperidyl-3-formamide], the IC50 is 10 to 100 nM on JAK2 protein kinase, no more than 10 nM against JAK1 protein kinase and 10 to 100 nM on JAK3.
Regarding `CN(c1ncnc2[nH]ccc12)N1CCCC(C(=O)NCC(F)F)C1` (stereo not drawn) [WX47, 1-[methyl(7H-pyrrole[2,3-d]pyrimidine-4-)amino]-N-(2,2-difluoroethyl)piperidyl-3-formamide], the IC50 was 10 to 100 nM against JAK2 protein kinase, no more than 10 nM against JAK1 protein kinase and less than 10 nM at JAK3.
`CC(C)(C)OC(=O)N1CC2CN(Nc3ncnc4[nH]ccc34)CC2C1` (stereo not drawn) [WX48, 5-[[7H-pyrrole[2,3-d]pyrimidine-4-]amino]-hexahydropyrrolo[3,4-c]pyrrole-2(1H)-tert-butyl formate]: the IC50 against JAK2 protein kinase, at JAK1 protein kinase and against JAK3 was greater than 1000 nM throughout.
As for `CN(c1ncnc2[nH]ccc12)N1CCCC(C(=O)Nc2cccc(C(F)(F)F)c2)C1` (stereo not drawn) [WX53, 1-[methyl(7H-pyrrolo[2,3-d]pyrimidin-4-yl)amino]-N-[3-(trifluoromethyl)phenyl]piperidyl-3-formamide], the IC50 against JAK2 protein kinase is 100 to 1000 nM; on JAK1 protein kinase it was 10 to 100 nM; at JAK3, 100 to 1000 nM.
For `CN(c1ncnc2[nH]ccc12)N1CCCC(C(=O)N2CC(O)C2)C1` (stereo not drawn) [WX54], the IC50 against JAK2 protein kinase, against JAK1 protein kinase and against JAK3 was 100 to 1000 nM each time.
As for `N#CCC(=O)N1CC2CCN(Nc3ncnc4[nH]ccc34)CC2C1` (stereo not drawn) [WX55, 3-[5-(7H-pyrrolo[2,3-d]pyrimidin-4-ylamino)-hexahydro-1H-pyrrolo[3,4-c]pyridin-2-yl]3-oxopropanenitrile], the IC50 was greater than 1000 nM against JAK2 protein kinase, 100 to 1000 nM against JAK1 protein kinase and greater than 1000 nM at JAK3.

The term IC50 denotes the midpoint of a concentration-inhibition curve.
